# Active and inactive are the calls of the source. The calls are words filed in the database; no cut-off is given here.
# Columns and labels:
# [1] = Average plasma concentration in CB-17/SCID mouse implanted with mouse BaF3 cells expressing EML4-ALK G1202R mutant at 25 mg/kg, po administered once daily for 7 days by LC-MS/MS analysis; format: ADME, organism-based; conditions: in vivo, 168 h, time 7 day
# [2] = target: Macrophage colony-stimulating factor 1 receptor (Homo sapiens, UniProt P07333); assay: Inhibition of human FMS using poly (Glu, Tyr)4:1 as substrate in presence of [gamma33P]-ATP by HotSpot assay
# [3] = target: MAP kinase-activated protein kinase 2 (Homo sapiens) (UniProt P49137); assay: Inhibition of human MAPKAPK2 at 1 uM using KKLNRTLSVA as substrate in presence of [gamma33P]-ATP by HotSpot assay relative to control
# [4] = system: EML4-ALK (Homo sapiens), Q9UM73+Q9HC35 [S1206A]; conditions: BaF3, dose 200.0 nmol/L, time 3-5 weeks
# [5] = target: Serine/threonine-protein kinase TAO2 (Homo sapiens) (UniProt Q9UL54); assay: Inhibition of human TAOK2 at 1 uM using MBP as substrate in presence of [gamma33P]-ATP by HotSpot assay relative to control
# [6] = Average plasma concentration in CB-17/SCID mouse implanted with mouse BaF3 cells expressing EML4-ALK G1202R mutant at 50 mg/kg, po administered once daily for 7 days by LC-MS/MS analysis; format: ADME, organism-based; conditions: in vivo, 168 h, time 7 day
# [7] = system: SU-DHL-1; conditions: time 72 hrs
# [8] = system: EML4-ALK (Homo sapiens), Q9UM73+Q9HC35 [G1202R]; conditions: BaF3, time 3-5 weeks
# [9] = system: Epidermal growth factor receptor (Homo sapiens), P00533 [UNDEFINED MUTATION]; conditions: BaF3, time 72.0 hrs
# [10] = target: Serine/threonine-protein kinase 24 (Homo sapiens) (UniProt Q9Y6E0); assay: Inhibition of human STK24 at 1 uM using MBP as substrate in presence of [gamma33P]-ATP by HotSpot assay relative to control
# [11] = target: MAP kinase-interacting serine/threonine-protein kinase 2 (Homo sapiens) (UniProt Q9HBH9); assay: Inhibition of human MNK2 at 1 uM using MBP as substrate in presence of [gamma33P]-ATP by HotSpot assay relative to control
# [12] = system: EML4-ALK (Homo sapiens), Q9UM73+Q9HC35 [C1156Y]; conditions: BaF3, dose 500.0 nmol/L, time 3-5 weeks
# [13] = system: EML4-ALK (Homo sapiens), Q9UM73+Q9HC35 [D1203N]; conditions: BaF3, time 3-5 weeks
# [14] = target: Receptor tyrosine-protein kinase erbB-2 (Homo sapiens, UniProt P04626); assay: Inhibition of human ERBB2 using poly (Glu, Tyr)4:1 as substrate in presence of [gamma33P]-ATP by HotSpot assay
# [15] = target: Serine/threonine-protein kinase PLK2 (Homo sapiens) (UniProt Q9NYY3); assay: Inhibition of human PLK2 at 1 uM using casein as substrate in presence of [gamma33P]-ATP by HotSpot assay relative to control
# [16] = target: Ribosomal protein S6 kinase alpha-3 (Homo sapiens, UniProt P51812); assay: Inhibition of human RPS6kA3 using KKLNRTLSVA as substrate in presence of [gamma33P]-ATP by HotSpot assay
# [17] = target: Serine/threonine-protein kinase 3 (Homo sapiens) (UniProt Q13188); assay: Inhibition of human STK3 at 1 uM using MBP as substrate in presence of [gamma33P]-ATP by HotSpot assay relative to control
# [18] = target: Hepatocyte growth factor receptor (Homo sapiens, UniProt P08581); assay: Inhibition of human MET using poly (Glu, Tyr)4:1 as substrate in presence of [gamma33P]-ATP by HotSpot assay
# [19] = target: Cytoplasmic tyrosine-protein kinase BMX (Homo sapiens) (UniProt P51813); assay: Inhibition of human BMX at 1 uM using poly (Glu, Tyr)4:1 as substrate in presence of [gamma33P]-ATP by HotSpot assay relative to control
# [20] = target: Aurora kinase C (Homo sapiens, UniProt Q9UQB9); assay: Inhibition of human AURKC using H-LRRASLG as substrate in presence of [gamma33P]-ATP by HotSpot assay
# [21] = system: Epidermal growth factor receptor (Homo sapiens), P00533 [L858R]; conditions: BaF3, time 72.0 hrs
# [22] = target: Tyrosine-protein kinase ABL1 (Homo sapiens, UniProt P00519, T315I); assay: Inhibition of human ABL1 T315I mutant using EAIYAAPFAKKK as substrate in presence of [gamma33P]-ATP by HotSpot assay
# [23] = target: Receptor tyrosine-protein kinase erbB-4 (Homo sapiens, UniProt Q15303); assay: Inhibition of human ERBB4 using poly (Glu, Tyr)4:1 as substrate in presence of [gamma33P]-ATP by HotSpot assay
# [24] = target: Beta-adrenergic receptor kinase 1 (Homo sapiens) (UniProt P25098); assay: Inhibition of human ADRBK1 at 1 uM using casein as substrate in presence of [gamma33P]-ATP by HotSpot assay relative to control
# [25] = system: U-937; conditions: time 72 hrs
# [26] = target: Platelet-derived growth factor receptor alpha (Homo sapiens) (UniProt P16234); assay: Inhibition of human PDGFRalpha at 1 uM using poly (Glu, Tyr)4:1 as substrate in presence of [gamma33P]-ATP by HotSpot assay relative to control
# [27] = system: EML4-ALK (Homo sapiens), Q9UM73+Q9HC35 [L1198F]; conditions: BaF3, time 3-5 weeks
# [28] = target: Tyrosine-protein kinase JAK1 (Homo sapiens) (UniProt P23458); assay: Inhibition of human JAK1 at 1 uM using MBP as substrate in presence of [gamma33P]-ATP by HotSpot assay relative to control
# [29] = system: EML4-ALK (Homo sapiens), Q9UM73+Q9HC35 [E1210K]; conditions: BaF3, time 3-5 weeks
# [30] = target: Serine/threonine-protein kinase pim-2 (Homo sapiens) (UniProt Q9P1W9); assay: Inhibition of human PIM2 at 1 uM using RSRHSSYPAGT as substrate in presence of [gamma33P]-ATP by HotSpot assay relative to control
# [31] = system: EML4-ALK (Homo sapiens), Q9UM73+Q9HC35 [F1174V]; conditions: BaF3, dose 500.0 nmol/L, time 3-5 weeks
# [32] = target: Protein kinase C eta type (Homo sapiens) (UniProt P24723); assay: Inhibition of human PKCeta at 1 uM using ERMRPRKRQGSVRRRV as substrate in presence of [gamma33P]-ATP by HotSpot assay relative to control
# Sequence of Receptor tyrosine-protein kinase erbB-2 (P04626 whole entry): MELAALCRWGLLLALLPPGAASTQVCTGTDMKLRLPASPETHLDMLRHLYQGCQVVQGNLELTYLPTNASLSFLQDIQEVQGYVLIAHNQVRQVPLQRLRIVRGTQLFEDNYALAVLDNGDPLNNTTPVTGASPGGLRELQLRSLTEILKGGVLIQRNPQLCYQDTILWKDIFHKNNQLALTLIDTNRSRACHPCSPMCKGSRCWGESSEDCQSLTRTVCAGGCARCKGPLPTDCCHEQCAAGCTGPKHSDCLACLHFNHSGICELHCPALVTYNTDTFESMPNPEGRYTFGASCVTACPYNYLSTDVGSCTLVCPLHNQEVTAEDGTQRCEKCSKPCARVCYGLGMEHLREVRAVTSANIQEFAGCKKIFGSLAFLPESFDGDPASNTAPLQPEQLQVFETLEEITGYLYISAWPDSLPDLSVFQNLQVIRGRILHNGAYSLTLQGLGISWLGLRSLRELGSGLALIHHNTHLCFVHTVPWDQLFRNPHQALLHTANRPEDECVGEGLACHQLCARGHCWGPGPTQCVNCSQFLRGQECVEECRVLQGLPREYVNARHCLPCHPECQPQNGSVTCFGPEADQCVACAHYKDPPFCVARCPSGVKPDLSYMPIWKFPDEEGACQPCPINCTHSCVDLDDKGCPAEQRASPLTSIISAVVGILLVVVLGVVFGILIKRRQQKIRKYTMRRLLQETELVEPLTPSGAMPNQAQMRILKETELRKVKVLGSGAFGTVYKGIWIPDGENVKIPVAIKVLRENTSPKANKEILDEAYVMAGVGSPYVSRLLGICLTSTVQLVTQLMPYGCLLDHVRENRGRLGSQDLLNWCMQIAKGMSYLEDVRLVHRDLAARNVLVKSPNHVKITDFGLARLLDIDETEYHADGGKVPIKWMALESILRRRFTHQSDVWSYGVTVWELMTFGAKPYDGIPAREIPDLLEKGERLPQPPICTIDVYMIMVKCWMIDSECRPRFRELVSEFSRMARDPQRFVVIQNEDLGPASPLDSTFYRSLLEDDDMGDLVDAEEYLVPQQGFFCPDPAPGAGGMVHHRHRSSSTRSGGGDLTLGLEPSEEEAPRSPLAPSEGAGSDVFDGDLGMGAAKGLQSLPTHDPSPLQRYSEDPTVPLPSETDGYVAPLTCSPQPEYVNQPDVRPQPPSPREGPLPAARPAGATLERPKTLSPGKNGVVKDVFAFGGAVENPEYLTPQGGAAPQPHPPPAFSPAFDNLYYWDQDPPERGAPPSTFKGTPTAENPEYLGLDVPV
# Sequence of Cytoplasmic tyrosine-protein kinase BMX (Homo sapiens) (P51813 whole entry): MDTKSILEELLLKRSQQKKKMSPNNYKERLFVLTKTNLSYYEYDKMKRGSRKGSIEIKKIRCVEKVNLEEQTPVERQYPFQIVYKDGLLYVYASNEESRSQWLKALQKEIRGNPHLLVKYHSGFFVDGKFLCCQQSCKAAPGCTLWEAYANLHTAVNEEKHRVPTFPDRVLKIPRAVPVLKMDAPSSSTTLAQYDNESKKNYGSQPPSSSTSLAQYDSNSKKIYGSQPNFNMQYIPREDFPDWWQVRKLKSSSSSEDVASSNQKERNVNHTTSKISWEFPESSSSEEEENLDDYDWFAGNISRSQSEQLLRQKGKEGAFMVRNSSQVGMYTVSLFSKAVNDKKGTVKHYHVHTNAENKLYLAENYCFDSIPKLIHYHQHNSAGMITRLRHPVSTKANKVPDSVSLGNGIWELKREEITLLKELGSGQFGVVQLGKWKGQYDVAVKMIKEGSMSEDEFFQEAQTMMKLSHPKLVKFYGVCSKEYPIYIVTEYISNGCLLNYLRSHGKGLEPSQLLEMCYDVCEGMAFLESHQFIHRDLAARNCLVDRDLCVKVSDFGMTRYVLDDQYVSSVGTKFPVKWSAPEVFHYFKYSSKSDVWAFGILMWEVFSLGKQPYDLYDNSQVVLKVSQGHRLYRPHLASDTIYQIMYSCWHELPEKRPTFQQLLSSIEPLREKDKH
# Sequence of Serine/threonine-protein kinase 3 (Homo sapiens) (Q13188 whole entry): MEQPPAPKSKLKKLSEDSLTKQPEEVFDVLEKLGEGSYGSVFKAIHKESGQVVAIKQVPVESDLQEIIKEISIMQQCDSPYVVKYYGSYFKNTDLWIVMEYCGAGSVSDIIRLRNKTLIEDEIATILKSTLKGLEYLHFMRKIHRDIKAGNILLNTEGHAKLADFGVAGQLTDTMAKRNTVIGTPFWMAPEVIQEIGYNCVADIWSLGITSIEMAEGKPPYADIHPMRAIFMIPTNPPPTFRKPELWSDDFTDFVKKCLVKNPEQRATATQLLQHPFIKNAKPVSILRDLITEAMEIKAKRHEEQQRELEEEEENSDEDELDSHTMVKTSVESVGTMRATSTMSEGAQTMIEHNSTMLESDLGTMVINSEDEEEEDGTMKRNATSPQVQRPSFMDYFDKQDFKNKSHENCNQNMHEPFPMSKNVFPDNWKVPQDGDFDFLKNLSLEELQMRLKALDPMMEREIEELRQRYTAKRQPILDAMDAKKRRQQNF
# Sequence of MAP kinase-interacting serine/threonine-protein kinase 2 (Homo sapiens) (Q9HBH9 whole entry, looked up): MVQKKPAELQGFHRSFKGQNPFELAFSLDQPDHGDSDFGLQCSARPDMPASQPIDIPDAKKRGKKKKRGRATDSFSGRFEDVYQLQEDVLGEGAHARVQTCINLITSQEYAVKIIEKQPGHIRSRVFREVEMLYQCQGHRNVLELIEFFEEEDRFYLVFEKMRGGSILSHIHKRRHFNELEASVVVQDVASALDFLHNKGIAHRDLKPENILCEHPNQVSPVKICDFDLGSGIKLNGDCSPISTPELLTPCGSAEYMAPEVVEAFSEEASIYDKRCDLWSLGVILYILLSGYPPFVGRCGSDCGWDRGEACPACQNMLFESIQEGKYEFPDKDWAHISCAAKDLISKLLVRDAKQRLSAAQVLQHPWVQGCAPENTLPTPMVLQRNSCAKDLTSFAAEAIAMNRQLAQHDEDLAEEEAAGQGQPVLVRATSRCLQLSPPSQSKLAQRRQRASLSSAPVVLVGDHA
# Sequence of Platelet-derived growth factor receptor alpha (Homo sapiens) (P16234 whole entry): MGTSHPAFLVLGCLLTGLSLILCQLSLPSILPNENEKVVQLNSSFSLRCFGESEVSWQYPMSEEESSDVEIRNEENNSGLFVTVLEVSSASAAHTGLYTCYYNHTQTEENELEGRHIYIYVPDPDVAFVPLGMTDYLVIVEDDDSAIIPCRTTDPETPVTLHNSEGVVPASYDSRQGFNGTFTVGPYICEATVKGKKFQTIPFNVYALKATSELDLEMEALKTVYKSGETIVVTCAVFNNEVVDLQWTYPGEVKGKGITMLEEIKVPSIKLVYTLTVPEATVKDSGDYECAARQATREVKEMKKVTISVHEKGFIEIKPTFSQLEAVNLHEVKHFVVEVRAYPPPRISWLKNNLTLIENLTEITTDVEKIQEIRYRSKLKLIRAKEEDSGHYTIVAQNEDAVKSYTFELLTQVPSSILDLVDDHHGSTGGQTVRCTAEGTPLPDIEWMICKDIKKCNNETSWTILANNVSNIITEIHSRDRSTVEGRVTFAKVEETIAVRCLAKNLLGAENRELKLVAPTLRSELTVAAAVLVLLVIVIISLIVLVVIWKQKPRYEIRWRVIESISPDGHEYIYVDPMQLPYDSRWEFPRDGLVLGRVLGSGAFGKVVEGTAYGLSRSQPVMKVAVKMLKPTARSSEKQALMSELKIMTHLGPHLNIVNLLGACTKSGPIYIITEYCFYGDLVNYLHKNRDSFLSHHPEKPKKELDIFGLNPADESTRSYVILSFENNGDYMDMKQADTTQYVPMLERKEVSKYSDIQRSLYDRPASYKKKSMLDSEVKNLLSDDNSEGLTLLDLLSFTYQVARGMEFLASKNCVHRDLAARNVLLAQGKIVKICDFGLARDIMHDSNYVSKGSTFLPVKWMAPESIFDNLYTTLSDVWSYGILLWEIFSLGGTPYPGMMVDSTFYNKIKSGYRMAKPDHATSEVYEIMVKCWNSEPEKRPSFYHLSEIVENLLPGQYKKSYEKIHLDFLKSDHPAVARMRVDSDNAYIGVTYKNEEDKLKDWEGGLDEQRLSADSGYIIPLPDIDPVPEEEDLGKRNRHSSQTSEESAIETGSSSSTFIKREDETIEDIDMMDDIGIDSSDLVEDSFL
# Sequence of Beta-adrenergic receptor kinase 1 (Homo sapiens) (P25098 whole entry): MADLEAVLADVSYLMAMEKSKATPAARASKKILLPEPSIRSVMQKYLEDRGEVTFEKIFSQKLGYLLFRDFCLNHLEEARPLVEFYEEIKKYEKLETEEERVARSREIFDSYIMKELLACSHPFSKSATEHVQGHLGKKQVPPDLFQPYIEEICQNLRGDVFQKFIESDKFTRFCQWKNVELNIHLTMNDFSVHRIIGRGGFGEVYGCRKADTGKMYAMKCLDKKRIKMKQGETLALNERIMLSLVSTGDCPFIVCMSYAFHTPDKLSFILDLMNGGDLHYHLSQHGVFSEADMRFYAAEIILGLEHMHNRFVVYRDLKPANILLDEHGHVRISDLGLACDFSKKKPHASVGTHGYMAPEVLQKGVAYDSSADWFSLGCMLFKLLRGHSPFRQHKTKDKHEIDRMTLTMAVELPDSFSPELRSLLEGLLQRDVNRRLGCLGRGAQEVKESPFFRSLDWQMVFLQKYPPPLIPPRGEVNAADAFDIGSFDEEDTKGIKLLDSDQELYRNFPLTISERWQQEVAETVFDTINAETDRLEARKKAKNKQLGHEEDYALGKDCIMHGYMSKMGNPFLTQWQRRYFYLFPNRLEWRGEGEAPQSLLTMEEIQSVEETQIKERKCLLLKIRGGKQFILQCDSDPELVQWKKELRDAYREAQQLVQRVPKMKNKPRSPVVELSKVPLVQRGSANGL
# Sequence of MAP kinase-activated protein kinase 2 (Homo sapiens) (P49137 whole entry, looked up): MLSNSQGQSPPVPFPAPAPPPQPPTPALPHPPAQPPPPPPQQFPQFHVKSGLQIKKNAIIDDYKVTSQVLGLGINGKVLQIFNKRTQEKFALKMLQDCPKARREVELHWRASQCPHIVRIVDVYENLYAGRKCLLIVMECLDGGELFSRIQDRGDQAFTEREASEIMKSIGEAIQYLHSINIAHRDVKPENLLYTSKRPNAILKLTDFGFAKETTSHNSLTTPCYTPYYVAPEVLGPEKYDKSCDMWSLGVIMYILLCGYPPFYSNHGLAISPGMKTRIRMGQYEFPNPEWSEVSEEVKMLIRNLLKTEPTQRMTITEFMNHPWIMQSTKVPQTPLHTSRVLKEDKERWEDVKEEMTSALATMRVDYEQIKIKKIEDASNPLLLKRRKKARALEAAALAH
smiles,measurement,setting,value
COc1cc(N2CCC(N3CCN(C)CC3)CC2)ccc1Nc1ncc(Cl)c(Nc2ccccc2P(C)(C)=O)n1 [BRIGATINIB],Cave,[1],2.546 µM
same,IC50,[2],358 nM
same,inhibition,[3],< 90%
same,inhibition,[4],inactive
same,inhibition,[5],< 90%
same,Cave,[6],5.151 µM
same,GI50,[7],9 nM
same,IC90,[8],762 nM
same,IC90,[9],314 nM
same,inhibition,[10],< 90%
same,inhibition,[11],< 90%
same,inhibition,[12],Active
same,IC90,[13],276 nM
same,IC50,[14],42 nM
same,inhibition,[15],< 90%
same,IC50,[16],26 nM
same,inhibition,[17],< 90%
same,IC50,[18],> 1000 nM
same,inhibition,[19],< 90%
same,IC50,[20],> 1000 nM
same,IC90,[21],1200 nM
same,IC50,[22],242 nM
same,IC50,[23],27 nM
same,inhibition,[24],< 90%
same,GI50,[25],2390 nM
same,inhibition,[26],< 90%
same,IC90,[27],242 nM
same,inhibition,[28],< 90%
same,IC90,[29],366 nM
same,inhibition,[30],< 90%
same,inhibition,[31],Active
same,inhibition,[32],< 90%

# Reference: ChEMBL document CHEMBL5696443 (Clin Cancer Res, 2016)
